Measured values reported in US7923248B2, “Methods for producing microspore derived doubled haploid apiaceae” (NRC, priority 2005, dated 2011).

Tested on: isolated microspores of vegetable fennel (VF-2)
Experiment: Isolated microspore culture of fennel with EBR in the medium (embryo formation)
Assay type: cell-based, fennel (Foeniculum vulgare)
Conditions: FIG. 5
Experimental: FIG. 5. Effect of 24-Epibrassinolide on microspore embryogenesis of vegetable fennel (VF-2). A=NLN-25; B=NLN-25+0.1 mM EBR; C=NLN-25+1.0 mM EBR; D=NLN-25 changed to NLN-10; E=NLN-25+0.1 mM EBR changed to NLN-10; and F=NLN-25+1.0 mM EBR changed to NLN-10.
Several basal media were compared for fennel microspore embryogenesis. Donor plants for microspore culture were grown as described herein. Flower buds were measured and buds in the range of 1-3 mm were put into Lipshaw baskets. The Lipshaw baskets were immersed for one minute in 70% ethanol in a sterile beaker and placed on a shaker. After one minute, the ethanol was removed and the baskets containing the buds were rinsed with sterile water. The Lipshaw baskets were immersed for 15 min in 6% sodium hypochlorite in a sterile beaker placed on a shaker. After 15 min, the sodium hypochlorite was removed by three 5-min washes with sterile water. The buds were removed from the Lipshaw baskets with sterile forceps and placed in a mortar with 5 mL of half-strength Gamborg B5 medium with 13% sucrose. The buds were gently crushed with a pestle, and the resulting suspension was filtered through a 44 μm nylon screen cloth into a 50 mL sterile centrifuge tube. The mortar and filter were rinsed three times with 5 mL of half-strength B5-13 which was filtered and added to the suspension to a total of 20 mL. […]

Structure (SMILES): CC(C)[C@@H](C)[C@@H](O)[C@H](O)[C@@H](C)[C@H]1CC[C@H]2[C@@H]3COC(=O)[C@H]4C[C@H](O)[C@H](O)C[C@]4(C)[C@H]3CC[C@]12C [24 EBR, 24-epibrassinolide]
- fennel embryo formation (microspore embryogenesis) (continued exposure to EBR, NLN-25 medium, 32° C. for 3 days then 24° C.): somewhat inhibitory
- fennel embryo formation (microspore embryogenesis) (media change after 72 h to a lower sucrose concentration and removal of the EBR): stimulatory
